# According to the NIST ThermoML archive (doi:10.1021/acs.jced.6b00750):
# Numbers after ± are expanded uncertainties.
# Experiment: xn = mol fraction of the nth substance listed
# Conditions: Liquid; for mass density: Vibrating wire densiometer; for viscosity: Vibrating wire viscometry
# [1] = 373.47 K, 20010 kPa, x1 = 0.3979
# [2] = 373.47 K, 40020 kPa, x1 = 0.3979
# [3] = 373.47 K, 54720 kPa, x1 = 0.3979
# [4] = 373.47 K, 56030 kPa, x1 = 0.3979
# [5] = 423.24 K, 10310 kPa, x1 = 0.2021
# [6] = 423.24 K, 10870 kPa, x1 = 0.2021
# [7] = 423.24 K, 10900 kPa, x1 = 0.2021
# [8] = 423.24 K, 20030 kPa, x1 = 0.2021
# [9] = 423.24 K, 40040 kPa, x1 = 0.2021
# [10] = 423.24 K, 60080 kPa, x1 = 0.2021
# [11] = 423.24 K, 80150 kPa, x1 = 0.2021
# [12] = 423.31 K, 15700 kPa, x1 = 0.1013
# [13] = 423.31 K, 20010 kPa, x1 = 0.1013
# [14] = 423.31 K, 40030 kPa, x1 = 0.1013
# [15] = 423.31 K, 80070 kPa, x1 = 0.1013
# [16] = 423.58 K, 20510 kPa, x1 = 0.2976
# [17] = 423.58 K, 20550 kPa, x1 = 0.2976
# [18] = 423.58 K, 22750 kPa, x1 = 0.2976
# [19] = 423.58 K, 40090 kPa, x1 = 0.2976
# [20] = 423.58 K, 60240 kPa, x1 = 0.2976
# [21] = 423.58 K, 80360 kPa, x1 = 0.2976
# [22] = 423.94 K, 16530 kPa, x1 = 0.3979
# [23] = 423.94 K, 16610 kPa, x1 = 0.3979
# [24] = 423.94 K, 20030 kPa, x1 = 0.3979
# [25] = 423.94 K, 40010 kPa, x1 = 0.3979
# [26] = 423.94 K, 56150 kPa, x1 = 0.3979
# [27] = 473.17 K, 40030 kPa, x1 = 0.1013
# [28] = 473.17 K, 60040 kPa, x1 = 0.1013
# [29] = 473.17 K, 80060 kPa, x1 = 0.1013
# [30] = 473.36 K, 12980 kPa, x1 = 0.2021
# [31] = 473.36 K, 13010 kPa, x1 = 0.2021
# [32] = 473.36 K, 20070 kPa, x1 = 0.2021
# [33] = 473.36 K, 40070 kPa, x1 = 0.2021
# [34] = 473.36 K, 60040 kPa, x1 = 0.2021
# [35] = 473.36 K, 80030 kPa, x1 = 0.2021
# [36] = 473.4 K, 24480 kPa, x1 = 0.2976
# [37] = 473.4 K, 24500 kPa, x1 = 0.2976
# [38] = 473.4 K, 40130 kPa, x1 = 0.2976
# [39] = 473.4 K, 60110 kPa, x1 = 0.2976
# [40] = 473.4 K, 79930 kPa, x1 = 0.2976
# [41] = 473.68 K, 22720 kPa, x1 = 0.3979
# [42] = 473.68 K, 25730 kPa, x1 = 0.3979
# [43] = 473.68 K, 40080 kPa, x1 = 0.3979
# [44] = 473.68 K, 60000 kPa, x1 = 0.3979
# [45] = 473.68 K, 80230 kPa, x1 = 0.3979
structure (smiles),measurement,setting,value
C [methane] + CCCCCCCCCCCCCCCC,mass density,[1],732.4 ± 2.2 kg/m3
same,viscosity,[1],0.97 ± 0.041 mPa·s
same,mass density,[2],747.6 ± 2.3 kg/m3
same,viscosity,[2],1.17 ± 0.026 mPa·s
same,mass density,[3],756.7 ± 2.3 kg/m3
same,viscosity,[3],1.365 ± 0.029 mPa·s
same,mass density,[4],757.3 ± 2.3 kg/m3
same,viscosity,[4],1.364 ± 0.029 mPa·s
same,mass density,[5],686.8 ± 2.2 kg/m3
same,viscosity,[5],0.557 ± 0.012 mPa·s
same,mass density,[6],687.6 ± 2.2 kg/m3
same,viscosity,[6],0.556 ± 0.012 mPa·s
same,mass density,[7],687.1 ± 2.2 kg/m3
same,viscosity,[7],0.557 ± 0.012 mPa·s
same,mass density,[8],697.4 ± 2.1 kg/m3
same,viscosity,[8],0.625 ± 0.014 mPa·s
same,mass density,[9],715.6 ± 2.2 kg/m3
same,viscosity,[9],0.762 ± 0.017 mPa·s
same,mass density,[10],730.3 ± 2.2 kg/m3
same,viscosity,[10],0.912 ± 0.02 mPa·s
same,mass density,[11],743.2 ± 2.3 kg/m3
same,viscosity,[11],1.067 ± 0.023 mPa·s
same,mass density,[12],707.2 ± 2.2 kg/m3
same,viscosity,[12],0.611 ± 0.014 mPa·s
same,mass density,[13],711.8 ± 2.2 kg/m3
same,viscosity,[13],0.643 ± 0.015 mPa·s
same,mass density,[14],728 ± 2.2 kg/m3
same,viscosity,[14],0.816 ± 0.018 mPa·s
same,mass density,"423.31 K, 60000 kPa, x1 = 0.1013",744.5 ± 2.3 kg/m3
same,mass density,[15],754.2 ± 2.3 kg/m3
same,viscosity,[15],1.133 ± 0.025 mPa·s
same,mass density,[16],703.1 ± 2.3 kg/m3
same,viscosity,[16],0.612 ± 0.014 mPa·s
same,mass density,[17],703.3 ± 2.3 kg/m3
same,viscosity,[17],0.606 ± 0.014 mPa·s
same,mass density,[18],705.4 ± 2.2 kg/m3
same,viscosity,[18],0.618 ± 0.018 mPa·s
same,mass density,[19],720.8 ± 2.2 kg/m3
same,viscosity,[19],0.734 ± 0.016 mPa·s
same,mass density,[20],735.9 ± 2.2 kg/m3
same,viscosity,[20],0.873 ± 0.019 mPa·s
same,mass density,[21],748.5 ± 2.3 kg/m3
same,viscosity,[21],1.03 ± 0.023 mPa·s
same,mass density,[22],696.8 ± 2.1 kg/m3
same,viscosity,[22],0.565 ± 0.013 mPa·s
same,mass density,[23],697.1 ± 2.1 kg/m3
same,viscosity,[23],0.555 ± 0.013 mPa·s
same,mass density,[24],700.1 ± 2.2 kg/m3
same,viscosity,[24],0.587 ± 0.017 mPa·s
same,mass density,[25],718.3 ± 2.2 kg/m3
same,viscosity,[25],0.717 ± 0.016 mPa·s
same,mass density,[26],730.8 ± 2.2 kg/m3
same,viscosity,[26],0.822 ± 0.018 mPa·s
same,mass density,[27],705.1 ± 2.2 kg/m3
same,viscosity,[27],0.591 ± 0.013 mPa·s
same,mass density,[28],721.8 ± 2.2 kg/m3
same,viscosity,[28],0.687 ± 0.015 mPa·s
same,mass density,[29],735.5 ± 2.2 kg/m3
same,viscosity,[29],0.794 ± 0.017 mPa·s
same,mass density,[30],656.9 ± 2.1 kg/m3
same,viscosity,[30],0.388 ± 0.009 mPa·s
same,mass density,[31],656.8 ± 2.1 kg/m3
same,viscosity,[31],0.387 ± 0.009 mPa·s
same,mass density,[32],666.6 ± 2.1 kg/m3
same,viscosity,[32],0.425 ± 0.01 mPa·s
same,mass density,[33],688.4 ± 2.1 kg/m3
same,viscosity,[33],0.53 ± 0.012 mPa·s
same,mass density,[34],706.1 ± 2.1 kg/m3
same,viscosity,[34],0.627 ± 0.014 mPa·s
same,mass density,[35],720.5 ± 2.2 kg/m3
same,viscosity,[35],0.732 ± 0.016 mPa·s
same,mass density,[36],676.6 ± 2.1 kg/m3
same,viscosity,[36],0.431 ± 0.01 mPa·s
same,mass density,[37],676.6 ± 2.1 kg/m3
same,viscosity,[37],0.427 ± 0.01 mPa·s
same,mass density,[38],693.5 ± 2.1 kg/m3
same,viscosity,[38],0.501 ± 0.012 mPa·s
same,mass density,[39],710.7 ± 2.2 kg/m3
same,viscosity,[39],0.6 ± 0.014 mPa·s
same,mass density,[40],724.7 ± 2.2 kg/m3
same,viscosity,[40],0.717 ± 0.016 mPa·s
same,mass density,[41],673.5 ± 2.1 kg/m3
same,viscosity,[41],0.42 ± 0.01 mPa·s
same,mass density,[42],676.9 ± 2.1 kg/m3
same,viscosity,[42],0.435 ± 0.01 mPa·s
same,mass density,[43],692.4 ± 2.1 kg/m3
same,viscosity,[43],0.502 ± 0.012 mPa·s
same,mass density,[44],709.8 ± 2.2 kg/m3
same,viscosity,[44],0.596 ± 0.013 mPa·s
same,mass density,[45],724.2 ± 2.2 kg/m3
same,viscosity,[45],0.704 ± 0.016 mPa·s
